Assay results published in the NIST ThermoML archive (doi:10.1016/j.jct.2010.12.028).

Experiments:
[1] = xn = mol fraction of the nth substance listed; conditions: 101 kPa, Liquid; for speed of sound: Sing-around technique in a fixed-path interferometer; for mass density: Vibrating tube method
[2] = excess molar enthalpy (molar enthalpy of mixing); xn = mol fraction of the nth substance listed; conditions: 308.15 K, 101 kPa, Liquid

Cc1ccccn1 [2-methylpyridine] + Cc1ccccc1N
Conditions	excess molar enthalpy, two-drop calorimeter [kcal/mol]	mass density, 298.15 K [kg/m3]	mass density, 303.15 K [kg/m3]	mass density, 308.15 K [kg/m3]	speed of sound, 298.15 K [m/s]	speed of sound, 303.15 K [m/s]	speed of sound, 308.15 K [m/s]
[1], x2 = 0.0588	–	944.871	940.204	935.521	1395.6	1376.2	1355.7
[1], x2 = 0.1226	–	950.051	945.414	940.771	1412	1392.5	1372.3
[1], x2 = 0.1427	–	951.609	946.996	942.357	1417.3	1397.5	1377.4
[1], x2 = 0.1759	–	954.117	949.518	944.908	1425.8	1405.8	1385.8
[1], x2 = 0.2258	–	957.721	953.161	948.573	1438.3	1418.1	1398.3
[1], x2 = 0.2557	–	959.793	955.24	950.677	1445.7	1425.4	1405.6
[1], x2 = 0.3113	–	963.447	958.931	954.409	1459.5	1438.7	1418.7
[1], x2 = 0.3629	–	966.623	962.158	957.666	1471.8	1450.8	1430.8
[1], x2 = 0.4213	–	969.995	965.568	961.112	1485.4	1464	1443.9
[1], x2 = 0.4743	–	972.843	968.45	964.025	1497.5	1475.7	1455.4
[1], x2 = 0.5146	–	974.899	970.527	966.122	1506.3	1484.4	1464
[1], x2 = 0.5732	–	977.707	973.382	968.998	1519.1	1496.8	1476.2
[1], x2 = 0.6182	–	979.733	975.431	971.079	1528.4	1505.9	1485.5
[1], x2 = 0.6862	–	982.621	978.364	974.033	1542.2	1519.4	1498.8
[1], x2 = 0.7571	–	985.441	981.219	976.909	1556.3	1532.9	1508
[1], x2 = 0.8344	–	988.355	984.158	979.889	1571.1	1547.4	1522.5
[1], x2 = 0.8737	–	989.787	985.611	981.361	1578.5	1554.6	1538.1
[1], x2 = 0.9527	–	992.636	988.492	984.295	1593.5	1569.1	1555.1
[2], x2 = 0.0496	-0.0681	–	–	–	–	–	–
[2], x2 = 0.0772	-0.103	–	–	–	–	–	–
[2], x2 = 0.1356	-0.173	–	–	–	–	–	–
[2], x2 = 0.1802	-0.22	–	–	–	–	–	–
[2], x2 = 0.2234	-0.26	–	–	–	–	–	–
[2], x2 = 0.2736	-0.298	–	–	–	–	–	–
[2], x2 = 0.3294	-0.327	–	–	–	–	–	–
[2], x2 = 0.3813	-0.347	–	–	–	–	–	–
[2], x2 = 0.4326	-0.361	–	–	–	–	–	–
[2], x2 = 0.4882	-0.358	–	–	–	–	–	–
[2], x2 = 0.5321	-0.351	–	–	–	–	–	–
[2], x2 = 0.5735	-0.342	–	–	–	–	–	–
[2], x2 = 0.6423	-0.307	–	–	–	–	–	–
[2], x2 = 0.7152	-0.259	–	–	–	–	–	–
[2], x2 = 0.7821	-0.207	–	–	–	–	–	–
[2], x2 = 0.8293	-0.163	–	–	–	–	–	–
[2], x2 = 0.8916	-0.104	–	–	–	–	–	–
[2], x2 = 0.9676	-0.0298	–	–	–	–	–	–

Cc1cccnc1 [3-methylpyridine] + Cc1ccccc1N
Conditions	excess molar enthalpy, two-drop calorimeter [kcal/mol]	mass density, 298.15 K [kg/m3]	mass density, 303.15 K [kg/m3]	mass density, 308.15 K [kg/m3]	speed of sound, 298.15 K [m/s]	speed of sound, 303.15 K [m/s]	speed of sound, 308.15 K [m/s]
[1], x2 = 0.0447	–	955.059	950.551	945.98	1433	1413	1393.3
[1], x2 = 0.1132	–	959.404	954.953	950.452	1446.4	1426.4	1407
[1], x2 = 0.1771	–	963.134	958.721	954.262	1458.6	1438.8	1419.5
[1], x2 = 0.2069	–	964.775	960.381	955.934	1464.1	1444.5	1425.1
[1], x2 = 0.2467	–	966.875	962.502	958.079	1471.5	1451.9	1432.5
[1], x2 = 0.2888	–	968.994	964.629	960.232	1479.1	1459.8	1440.4
[1], x2 = 0.3112	–	970.081	965.722	961.335	1483.1	1463.9	1444.3
[1], x2 = 0.3624	–	972.469	968.119	963.751	1492.2	1473.1	1453.4
[1], x2 = 0.4182	–	974.916	970.586	966.234	1502	1483	1463.2
[1], x2 = 0.4632	–	976.799	972.478	968.134	1509.7	1490.6	1470.9
[1], x2 = 0.5336	–	979.577	975.273	970.94	1521.7	1502.6	1482.7
[1], x2 = 0.5778	–	981.226	976.931	972.616	1529.2	1509.7	1489.9
[1], x2 = 0.6334	–	983.223	978.936	974.642	1538.6	1518.8	1499
[1], x2 = 0.6967	–	985.375	981.112	976.836	1549.2	1528.8	1509.3
[1], x2 = 0.7372	–	986.701	982.449	978.187	1556	1535.1	1515.8
[1], x2 = 0.8156	–	989.151	984.927	980.689	1569.5	1547.5	1528.4
[1], x2 = 0.8842	–	991.171	986.982	982.772	1581.5	1558.4	1539.5
[1], x2 = 0.9711	–	993.588	989.441	985.272	1597.2	1572.8	1553.6
[2], x2 = 0.0503	-0.0794	–	–	–	–	–	–
[2], x2 = 0.0843	-0.125	–	–	–	–	–	–
[2], x2 = 0.1425	-0.194	–	–	–	–	–	–
[2], x2 = 0.1901	-0.236	–	–	–	–	–	–
[2], x2 = 0.2323	-0.268	–	–	–	–	–	–
[2], x2 = 0.2837	-0.301	–	–	–	–	–	–
[2], x2 = 0.3334	-0.321	–	–	–	–	–	–
[2], x2 = 0.3783	-0.334	–	–	–	–	–	–
[2], x2 = 0.4436	-0.337	–	–	–	–	–	–
[2], x2 = 0.4926	-0.337	–	–	–	–	–	–
[2], x2 = 0.5487	-0.323	–	–	–	–	–	–
[2], x2 = 0.5902	-0.312	–	–	–	–	–	–
[2], x2 = 0.6643	-0.281	–	–	–	–	–	–
[2], x2 = 0.7182	-0.248	–	–	–	–	–	–
[2], x2 = 0.7789	-0.209	–	–	–	–	–	–
[2], x2 = 0.8348	-0.163	–	–	–	–	–	–
[2], x2 = 0.8937	-0.11	–	–	–	–	–	–

Cc1ccncc1 [4-methylpyridine] + Cc1ccccc1N
[1]
Conditions	mass density, 298.15 K [kg/m3]	mass density, 303.15 K [kg/m3]	mass density, 308.15 K [kg/m3]	speed of sound, 298.15 K [m/s]	speed of sound, 303.15 K [m/s]	speed of sound, 308.15 K [m/s]
x2 = 0.0525	953.707	949.033	944.539	1440.5	1419.5	1399.3
x2 = 0.1236	958.201	953.635	949.213	1452.6	1431.8	1412.2
x2 = 0.1357	958.939	954.384	949.974	1454.8	1433.9	1414.4
x2 = 0.1839	961.774	957.264	952.886	1463.1	1442.5	1423.2
x2 = 0.2328	964.507	960.045	955.673	1471.4	1451.2	1432.1
x2 = 0.2655	966.252	961.821	957.455	1477.1	1457	1438.1
x2 = 0.3023	968.154	963.746	959.382	1483.4	1463.5	1444.7
x2 = 0.3539	970.688	966.314	961.964	1492.2	1472.7	1453.9
x2 = 0.4133	973.431	969.1	964.753	1502.4	1483	1464.4
x2 = 0.4863	976.578	972.285	967.972	1514.7	1495.5	1476.8
x2 = 0.5256	978.183	973.912	969.611	1521.3	1501.9	1483.2
x2 = 0.5671	979.804	975.56	971.274	1528.2	1508.7	1490
x2 = 0.6272	982.039	977.832	973.587	1538.3	1518.4	1499.7
x2 = 0.6963	984.487	980.309	976.116	1549.8	1529.2	1510.4
x2 = 0.7674	986.874	982.738	978.601	1561.7	1540.2	1521.3
x2 = 0.8234	988.699	984.584	980.475	1571.2	1548.8	1530
x2 = 0.8657	990.061	985.955	981.851	1578.4	1555.4	1536.6
x2 = 0.9537	992.867	988.752	984.639	1594	1569.8	1550.6

[2]
Conditions	excess molar enthalpy [kcal/mol]
x2 = 0.0426	-0.0583
x2 = 0.0815	-0.106
x2 = 0.1339	-0.166
x2 = 0.1824	-0.211
x2 = 0.2243	-0.246
x2 = 0.2715	-0.282
x2 = 0.3196	-0.305
x2 = 0.3825	-0.332
x2 = 0.4238	-0.341
x2 = 0.4783	-0.342
x2 = 0.5362	-0.338
x2 = 0.5915	-0.322
x2 = 0.6426	-0.303
x2 = 0.7121	-0.261
x2 = 0.7827	-0.212
x2 = 0.8211	-0.178
x2 = 0.8916	-0.114
x2 = 0.9672	-0.0361
